Laboratory results: patent US20220387405A1, “METHODS OF TREATMENT WITH N-((R)-1-(3-CHLOROPYRIDIN-2-YL)-2,2,2-TRIFLUOROETHYL)-2-((S)-2,6-DIOXOPIPERIDIN-3-YL)-1-OXOISOINDOLINE-5-CARBOXAMIDE” (CELGENE CORPORATION, priority 2021, published 2022)

Key:
CYP2E1 = biological target: T1, CYP2E1 (Homo sapiens, UniProt P05181); assay: CYP inhibition in human liver microsomes, CYP2E1; type: in vitro ADME
T1 construct: In human liver microsomes; from tissue; host or cells: human liver microsomes

[1] = tested on: Normal T lymphocytes in BM samples; assay: PharmaFlow test, normal T lymphocytes in AML patient BM samples; type: cell-based, human; settings: BM samples of AML patients; for Compound 1 all but 1 patient
[2] = biological target: T2, cloned hERG potassium channel expressed in the HEK-293 cell line (Homo sapiens, UniProt Q12809); assay: hERG IonWorks Barracuda patch clamp electrophysiology assay; type: cell-based
T2 construct: expressed in transfected cells; host or cells: HEK-293
Description: (§1) The effect of Compound 1 on the cloned hERG potassium channel expressed in the HEK-293 cell line was also investigated. […] The percent inhibition at 30 μM was 19%.

hERG potassium channel = biological target: T3, hERG potassium channel (Homo sapiens, UniProt Q12809); assay: as above; type: cell-based; settings: human, HEK-293 cells expressing cloned hERG potassium channel; at 30 μM; read-out: percent inhibition
T3 construct: expressed in transfected cells; host or cells: HEK-293
Description: as §1

CYP3A4/5 = assay: CYP inhibition in human liver microsomes, CYP3A4/5; type: in vitro ADME
CYP2D6 = biological target: T4, CYP2D6 (Homo sapiens, UniProt P10635); assay: CYP inhibition in human liver microsomes, CYP2D6; type: in vitro ADME
T4 construct: In human liver microsomes; from tissue; host or cells: human liver microsomes

CYP2C19 = biological target: T5, CYP2C19 (Homo sapiens, UniProt P33261); assay: CYP inhibition in human liver microsomes, CYP2C19; type: in vitro ADME
T5 construct: In human liver microsomes; from tissue; host or cells: human liver microsomes

CYP2C9 = biological target: T6, CYP2C9 (Homo sapiens, UniProt P11712); assay: CYP inhibition in human liver microsomes, CYP2C9; type: in vitro ADME
T6 construct: In human liver microsomes; from tissue; host or cells: human liver microsomes

CYP2B6 = assay: CYP induction in human hepatocyte culture, CYP2B6 mRNA; type: in vitro ADME; settings: up to 50 μM for three consecutive days
TP53 WT AML cell lines = assay: Cell autonomous activity against TP53 WT AML cell lines; type: cell-based
Text: (§2) The remaining 5 cell lines were either medium-sensitive or completely resistant to Compound 1; the unresponsiveness to Compound 1 treatment was associated with inadequate accumulation of p53 protein and/or its transcriptional targets BAX and PUMA.

[3] = Nonclinical pharmacokinetics in monkeys; type: in vivo
Text: The systemic clearance of Compound 1 was low and the volume of distribution was high in rats and monkeys. […] Notable sex differences in PK were not observed in either species. Compound 1 had good oral bioavailability (≥50%) in rats and monkeys.

Plasma protein binding = type: in vitro ADME, human and nonclinical species
Text: (§3) There was no marked difference in free fraction among human, rat and monkey. Over the concentration ranges tested (25- to 50-fold range) in each species, there was <2-fold change in free fraction.

[4] = tested on: Salmonella typhimurium strains (TA1535, TA1537, TA98, TA100); assay: Bacterial reverse mutation test, Salmonella typhimurium; type: cell-based
Description: Compound 1 was tested in Salmonella typhimurium strains (TA1535, TA1537, TA98, TA100) and Escherichia coli strain WP2 uvrA at a range of concentrations up to 5000 μg/plate (the standard limit concentration for this assay), in the presence and absence of a supplemented rat liver fraction (S9 mix), using the plate incorporation version of the bacterial reverse mutation test. Dimethyl sulfoxide (DMSO) was used as the solvent.
The mean revertant colony counts for the negative controls were within the laboratory historical control range. Bacteria were also incubated with standard positive controls, and the response of the various bacterial strains to these agents confirmed the sensitivity of the test system and the activity of the S9 mix. Therefore, the results from both the negative and positive controls confirmed the validity of the assay.
No substantial increases in revertant colony numbers were obtained with any of the tester strains, following exposure to Compound 1 at any concentration, in either the presence or absence of S9 mix. Therefore, Compound 1 was considered to be negative for the induction of mutagenicity in this in vitro assay.

[5] = tested on: AML cell lines with TP53 loss or mutation; assay: Activity against AML cell lines with TP53 loss or mutation; type: cell-based
Text: as §2

[6] = tested on: blasts in TP53 WT AML samples; assay: 5-day liquid culture of AML patient BM cells; type: cell-based, human
CYP2A6 = biological target: T7, CYP2A6 (Homo sapiens, UniProt P11509); assay: CYP inhibition in human liver microsomes, CYP2A6; type: in vitro ADME
T7 construct: In human liver microsomes; from tissue; host or cells: human liver microsomes

[7] = Partitioning into blood cells; type: in vitro ADME
Text: as §3

CYP3A4 = assay: CYP induction in human hepatocyte culture, CYP3A4 mRNA; type: in vitro ADME; settings: up to 50 μM for three consecutive days

T1 sequence (P05181 whole entry): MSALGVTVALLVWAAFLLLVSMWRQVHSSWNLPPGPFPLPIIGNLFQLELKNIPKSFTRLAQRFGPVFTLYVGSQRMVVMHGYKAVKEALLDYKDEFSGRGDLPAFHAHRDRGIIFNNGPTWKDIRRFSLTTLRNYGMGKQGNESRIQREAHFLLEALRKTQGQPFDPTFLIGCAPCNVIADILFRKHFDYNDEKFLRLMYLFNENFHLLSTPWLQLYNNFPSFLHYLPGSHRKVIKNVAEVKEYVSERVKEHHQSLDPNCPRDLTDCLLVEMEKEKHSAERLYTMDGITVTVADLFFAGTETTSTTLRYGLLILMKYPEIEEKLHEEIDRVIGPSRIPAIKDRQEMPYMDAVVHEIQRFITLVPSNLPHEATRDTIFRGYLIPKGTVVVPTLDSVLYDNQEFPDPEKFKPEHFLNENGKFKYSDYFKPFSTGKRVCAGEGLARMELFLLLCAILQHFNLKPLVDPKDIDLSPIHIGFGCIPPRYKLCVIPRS
T4 sequence (P10635 whole entry): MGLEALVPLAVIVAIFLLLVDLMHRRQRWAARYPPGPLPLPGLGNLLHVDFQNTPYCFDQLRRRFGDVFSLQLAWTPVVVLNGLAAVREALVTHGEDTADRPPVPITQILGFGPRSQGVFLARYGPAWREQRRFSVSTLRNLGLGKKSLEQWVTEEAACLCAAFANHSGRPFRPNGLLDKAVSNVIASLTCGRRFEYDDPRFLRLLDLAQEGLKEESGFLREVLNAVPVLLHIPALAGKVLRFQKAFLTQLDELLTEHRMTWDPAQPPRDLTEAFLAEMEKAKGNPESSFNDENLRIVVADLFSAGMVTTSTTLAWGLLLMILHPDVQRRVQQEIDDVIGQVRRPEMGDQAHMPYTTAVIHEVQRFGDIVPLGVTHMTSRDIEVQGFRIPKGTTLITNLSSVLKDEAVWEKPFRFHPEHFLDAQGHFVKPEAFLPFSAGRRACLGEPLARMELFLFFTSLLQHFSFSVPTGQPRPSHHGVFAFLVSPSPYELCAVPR
T5 sequence (P33261 whole entry): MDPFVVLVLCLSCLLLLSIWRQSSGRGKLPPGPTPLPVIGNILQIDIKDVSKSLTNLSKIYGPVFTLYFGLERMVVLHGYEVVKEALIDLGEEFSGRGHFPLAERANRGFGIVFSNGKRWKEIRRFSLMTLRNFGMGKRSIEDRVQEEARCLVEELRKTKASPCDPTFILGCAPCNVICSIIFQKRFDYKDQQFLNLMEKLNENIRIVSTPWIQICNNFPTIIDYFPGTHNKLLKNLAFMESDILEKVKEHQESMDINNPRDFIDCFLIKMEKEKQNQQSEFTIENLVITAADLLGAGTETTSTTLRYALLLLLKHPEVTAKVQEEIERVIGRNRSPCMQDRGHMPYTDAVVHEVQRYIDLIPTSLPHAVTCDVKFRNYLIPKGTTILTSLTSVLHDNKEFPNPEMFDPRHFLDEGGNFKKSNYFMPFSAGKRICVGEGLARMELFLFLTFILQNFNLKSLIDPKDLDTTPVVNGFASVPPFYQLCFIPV
T7 sequence (P11509 whole entry): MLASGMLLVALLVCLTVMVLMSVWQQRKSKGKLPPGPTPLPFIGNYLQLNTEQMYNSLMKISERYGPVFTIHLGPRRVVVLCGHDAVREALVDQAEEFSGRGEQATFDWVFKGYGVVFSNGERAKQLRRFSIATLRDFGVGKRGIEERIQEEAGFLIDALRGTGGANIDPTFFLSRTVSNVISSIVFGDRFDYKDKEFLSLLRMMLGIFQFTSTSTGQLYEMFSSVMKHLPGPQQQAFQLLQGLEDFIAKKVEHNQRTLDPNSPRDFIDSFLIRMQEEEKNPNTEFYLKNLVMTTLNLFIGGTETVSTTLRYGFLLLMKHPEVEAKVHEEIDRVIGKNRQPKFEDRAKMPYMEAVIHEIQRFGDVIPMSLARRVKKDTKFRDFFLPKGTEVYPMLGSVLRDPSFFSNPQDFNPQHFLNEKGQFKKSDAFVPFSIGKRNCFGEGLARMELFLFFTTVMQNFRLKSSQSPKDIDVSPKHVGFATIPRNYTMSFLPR
T2 sequence (Q12809 whole entry): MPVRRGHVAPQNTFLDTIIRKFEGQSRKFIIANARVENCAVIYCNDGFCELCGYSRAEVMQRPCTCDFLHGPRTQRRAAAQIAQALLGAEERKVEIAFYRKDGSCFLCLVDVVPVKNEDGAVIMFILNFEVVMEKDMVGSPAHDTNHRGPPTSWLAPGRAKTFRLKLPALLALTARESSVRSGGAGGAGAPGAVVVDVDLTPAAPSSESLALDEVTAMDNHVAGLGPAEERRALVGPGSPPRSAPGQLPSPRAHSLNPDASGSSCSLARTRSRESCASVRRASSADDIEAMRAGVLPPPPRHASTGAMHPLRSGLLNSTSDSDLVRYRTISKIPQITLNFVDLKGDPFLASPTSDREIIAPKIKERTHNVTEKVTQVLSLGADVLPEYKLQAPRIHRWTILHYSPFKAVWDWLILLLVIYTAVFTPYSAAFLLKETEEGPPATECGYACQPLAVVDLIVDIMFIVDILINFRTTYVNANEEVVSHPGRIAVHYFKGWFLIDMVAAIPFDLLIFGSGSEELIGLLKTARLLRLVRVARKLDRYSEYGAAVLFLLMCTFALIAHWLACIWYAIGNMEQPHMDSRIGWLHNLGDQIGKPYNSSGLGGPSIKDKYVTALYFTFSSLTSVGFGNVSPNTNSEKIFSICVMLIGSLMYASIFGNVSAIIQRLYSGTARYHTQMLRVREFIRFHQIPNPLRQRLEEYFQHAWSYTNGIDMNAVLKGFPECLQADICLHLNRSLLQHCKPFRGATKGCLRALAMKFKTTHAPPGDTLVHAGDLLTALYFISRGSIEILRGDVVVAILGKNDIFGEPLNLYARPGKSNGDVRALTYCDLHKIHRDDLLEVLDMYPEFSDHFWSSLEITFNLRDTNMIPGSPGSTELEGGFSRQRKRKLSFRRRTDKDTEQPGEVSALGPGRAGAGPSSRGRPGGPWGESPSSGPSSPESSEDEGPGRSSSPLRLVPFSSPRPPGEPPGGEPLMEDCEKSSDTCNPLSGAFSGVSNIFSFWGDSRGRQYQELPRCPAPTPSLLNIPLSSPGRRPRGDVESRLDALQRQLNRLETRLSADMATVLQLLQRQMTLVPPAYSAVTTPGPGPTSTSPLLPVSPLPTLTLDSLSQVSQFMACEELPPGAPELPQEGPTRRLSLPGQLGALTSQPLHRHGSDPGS
T6 sequence (P11712 whole entry): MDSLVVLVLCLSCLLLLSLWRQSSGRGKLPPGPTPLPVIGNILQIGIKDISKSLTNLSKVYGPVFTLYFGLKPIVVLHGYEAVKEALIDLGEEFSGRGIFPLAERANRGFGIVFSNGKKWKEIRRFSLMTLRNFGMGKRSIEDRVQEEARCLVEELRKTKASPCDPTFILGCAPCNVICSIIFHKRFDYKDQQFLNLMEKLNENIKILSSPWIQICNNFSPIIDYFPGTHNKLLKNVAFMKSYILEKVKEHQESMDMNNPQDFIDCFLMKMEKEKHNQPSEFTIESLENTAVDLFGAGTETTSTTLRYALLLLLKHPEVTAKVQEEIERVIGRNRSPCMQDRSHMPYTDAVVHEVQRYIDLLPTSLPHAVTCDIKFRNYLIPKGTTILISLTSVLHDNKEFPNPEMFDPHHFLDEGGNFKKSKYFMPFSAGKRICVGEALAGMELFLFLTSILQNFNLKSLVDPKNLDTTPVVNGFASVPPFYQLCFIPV
T3 sequence (Q12809 whole entry): as the sequence (Q12809 whole entry) above

## O=C1CC[C@H](N2Cc3cc(C(=O)N[C@H](c4ncccc4Cl)C(F)(F)F)ccc3C2=O)C(=O)N1 [Compound 1, N-((R)-1-(3-chloropyridin-2-yl)-2,2,2-trifluoroethyl)-2-((S)-2,6-dioxopiperidin-3-yl)-1-oxoisoindoline-5-carboxamide]
CYP2E1; CYP2E1, 30-minute preincubation with NADPH
  time-dependent inhibition: not a time-dependent inhibition
CYP2E1; human liver microsomes, CYP2E1
  inhibitory effect: ≤ 25%
[1]
  cytotoxicity in T lymphocytes: noticeably more resistant
[2]; concentrations up to 30 μM
  precipitation in the assay: did not precipitate
[2]; hERG, IonWorks Barracuda patch clamp
  IC50: > 30 µM
hERG potassium channel
  inhibition at 30 µM: 19%
CYP3A4/5; human liver microsomes, CYP3A4/5
  IC50: > 30 µM
CYP3A4/5; human, liver microsomes, CYP3A4/5, at 30 μM, 30-minute preincubation with NADPH, read-out: time-dependent inhibition
  inhibition at 30 min, 30 µM: < 20%
CYP2D6; CYP2D6, 30-minute preincubation with NADPH
  time-dependent inhibition: not a time-dependent inhibition
CYP2D6; human liver microsomes, CYP2D6
  inhibitory effect: ≤ 25%
CYP2C19; CYP2C19, 30-minute preincubation with NADPH
  time-dependent inhibition: not a time-dependent inhibition
CYP2C19; human liver microsomes, CYP2C19
  inhibitory effect: ≤ 25%
CYP2C9; CYP2C9, 30-minute preincubation with NADPH
  time-dependent inhibition: not a time-dependent inhibition
CYP2C9; human liver microsomes, CYP2C9
  IC50: > 30 µM
CYP2B6
  mRNA expression of CYP2B6: no dose-dependent increases
TP53 WT AML cell lines; of the 13 TP53 WT AML cell lines tested
  number of cell lines sensitive to Compound 1: 8
TP53 WT AML cell lines; the 8 sensitive of 13 TP53 WT AML cell lines tested
  IC50: 0.015 to 0.5 µM
[3]
  accumulation following multiple doses: No accumulation
  systemic clearance: low
  volume of distribution: high
[3]; monkey, in vivo, po
  bioavailability: ≥ 50%
[3]; monkey, in vivo, read-out: terminal half-life
  half-life: 2.3 to 4.4 h
Plasma protein binding; over the concentration ranges tested (25- to 50-fold range) in each species
  change in free fraction: < 2 fold
Plasma protein binding; plasma, human and nonclinical species
  fraction unbound: 0.007 to 0.103
[4]; highest concentrations tested
  toxicity to the bacteria: non-toxic
[4]; up to 5000 μg/plate, presence and absence of S9 mix
  induction of mutagenicity (revertant colony numbers): negative
[5]
  sensitivity to treatment: insensitive
[6]; 5 days in liquid culture, all TP53 WT AML samples tested, vs vehicle control
  total blast numbers: deeply decreased
[6]; liquid culture, apoptosis and cell cycle arrest, all samples
  IC50: nanomolar range
CYP2A6; CYP2A6, 30-minute preincubation with NADPH
  time-dependent inhibition: not a time-dependent inhibition
CYP2A6; human liver microsomes, CYP2A6
  inhibitory effect: ≤ 25%
[7]
  partitioning into blood cells: no or limited partitioning
CYP3A4
  mRNA expression of CYP3A4: no dose-dependent increases
